Laboratory results as given in PubChem BioAssay AID1794819.
Non-standard residues stand in square brackets, D forms with d. Residues, ends and D or L forms follow the SMILES beside them. Sar = CNCC(=O)O

Biological target: Solute carrier family 15 member 2 (Homo sapiens) (UniProt Q16348)
Test: PEPT2 transporter activation by peptide substrates – membrane potential dye, HEK-293 overexpressing cells, pH 6.8/7.4, dose response (AID 1794819)
Conditions: HEK-293 SLC15A2 OE, FLIPR membrane potential dye, as substrate

Chain of Solute carrier family 15 member 2 (Homo sapiens) (Q16348 whole entry, looked up): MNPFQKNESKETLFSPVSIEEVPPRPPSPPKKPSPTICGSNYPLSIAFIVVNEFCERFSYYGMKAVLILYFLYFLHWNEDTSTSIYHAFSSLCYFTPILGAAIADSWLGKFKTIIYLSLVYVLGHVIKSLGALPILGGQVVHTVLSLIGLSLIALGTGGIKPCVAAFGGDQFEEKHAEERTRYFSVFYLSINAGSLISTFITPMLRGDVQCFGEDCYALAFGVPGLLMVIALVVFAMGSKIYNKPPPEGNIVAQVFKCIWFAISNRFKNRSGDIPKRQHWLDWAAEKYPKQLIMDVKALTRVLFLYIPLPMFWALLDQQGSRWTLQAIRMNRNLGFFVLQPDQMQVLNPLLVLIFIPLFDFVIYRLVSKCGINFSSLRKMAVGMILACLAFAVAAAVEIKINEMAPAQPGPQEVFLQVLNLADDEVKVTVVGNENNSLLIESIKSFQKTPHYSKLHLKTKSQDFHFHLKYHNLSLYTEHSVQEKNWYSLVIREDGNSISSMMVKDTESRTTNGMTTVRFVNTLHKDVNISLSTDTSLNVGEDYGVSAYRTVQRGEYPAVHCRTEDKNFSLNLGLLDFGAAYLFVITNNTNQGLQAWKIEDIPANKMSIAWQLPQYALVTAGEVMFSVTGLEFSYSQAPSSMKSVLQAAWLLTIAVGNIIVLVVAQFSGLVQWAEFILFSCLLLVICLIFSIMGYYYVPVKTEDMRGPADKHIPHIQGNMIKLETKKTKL

Question: With `NCCC(=O)N[C@@H](Cc1cnc[nH]1)C(=O)O` as the compound, how does the EC50 (pH 6.8) read?
Answer: 28 µM

Question: With `CN(CC(=O)O)C(=O)CN` (H-Gly-[Sar]-OH) as the compound, how does the EC50 (pH 6.8) read?
Answer: 39 µM

Question: What about the EC50 (pH 7.4) of the same compound?
Answer: 123 µM
